Results published in US8703125B2, “Modulation of the Vps10p-domain receptor family for the treatment of mental and behavioural disorders” (H. Lundbeck A/S, priority 2008, dated 2014).
Entries after “also recorded” stand apart in the source; their conditions may differ.

Assays:
[1] = tested on: granule cells of the dentate gyrus; assay: GABAergic activity (sIPSCs), whole-cell patch-clamp in acute brain slices; format: cell-based, mouse; conditions: for GABAergic activity (in words): Sortilin −/− mouse brain slices
Protocol: FIG. 8: Neuronal GABA activity is increased in Sortilin and SorCS2 −/− mice, and can be rescued by BDNF. A, model describing how dentate gyrus granule cells are under powerful inhibitory control by GABAergic basket cells. The basket cell excitability is in turn depressed by BDNF released from the granule cells (Holm et al. Submitted, 2008) B, the GABAergic activity was assessed by electrophysiological recordings from single neurons in an in vitro mouse brain slice preparation (P16-P20). In each experimental condition, the frequency of spontaneous inhibitory postsynaptic currents (sIPSCs) was measured in Hz. In control mice (wildtype, WT) the GABAergic activity was 2.96±0.53 Hz (n=33 cells). In Sortilin −/− (Sortilin KO) mice, this activity increased to 6.15±0.80 Hz (n=25 cells). In rescue experiments, exogenous BDNF (20 ng/ml) reversed the GABA activity of Sortilin KO mice back to WT levels, reaching 2.66±1.4 Hz (n=3 cells). For comparison, the GABAergic activity in SorCS2 −/− (SorCS2 KO) mice was 5.68±0.7 Hz (n=6), highlighting the importance of Vps10p proteins in these inhibitory cell functions. Error bars indicate S.E.M.
3-4 week wildtype and Sortilin deficient mice were examined for neurophysiological in vitro correlates of anxiety/depression like behavior. In fresh 350 μm thick brain slices, inhibitory GABAergic synaptic input to hippocampal granule cells were quantified in living tissues. Electrophysiological patch-clamp recordings were carried out from acute brain slices from WT, Sortilin and Sorcs2 knockout (KO) mice. Following deep isoflurane anesthesia, male mice were sacrifized and the brain was carefully dissected out and cooled. 350 um thick brain slices were cut on a Vibratome 3000 Plus, and the tissue rested in O2/CO2 bubbled Ringer solution for at least 1 hour before experimentation (Drasbek and Jensen 2006). Whole-cell patch-clamp recordings were carried out at 33° C. from the soma of identified granule cells of the dentate gyrus (Jensen and Mody 2001). Under conditions of blocked glutamatergic excitation, GABAergic activity was apparent as spontaneous inhibitory postsynaptic currents (sIPSCs) that could be blocked by the GABAA receptor antagonist SR95531 (100 μM). For each cell, the frequency of sIPSCs was analyzed and frequencies were pooled within each experimental group. In rescue experiments, BDNF (brain-derived neurotrophic factor, 20 ng/ml) was perfused to the brain slice for at least 5 min and the GABAergic activity was assessed. […] Subsequently, the pathophysiological neuronal activity was restored in Sortilin deficient mouse brain slices by administering exogenous brain-derived neurotrophic factor (BDNF 20 ng/ml) to the tissue bathing solution (FIG. 8B).

[2] = tested on: Sortilin −/− hippocampal CA1 synapses; assay: NMDA receptor-dependent LTD in Sortilin −/− hippocampal slices (f-EPSP recording); format: cell-based, mouse; conditions: 40 ng/ml for at least 1 h before recording and throughout, LFS 1 Hz, 15 min
Protocol: FIG. 3: Impaired NMDA receptor-dependent LTD in Sortilin −/− and SorCS1 −/− mice. A, lack of LTD in sortilin −/− hippocampal CA1 synapses by the application of LFS (1 Hz, 15 min) to the Schaffer collaterals. In wt hippocampal CA1 synapses a LFS induces synaptic depression. B, rescue of NMDA receptor-dependent LTD in Sortilin −/− hippocampal CA1 synapses by cleavage-resistant proBDNF. […] LFS (1 Hz, 15 min) was applied to the Schaffer collaterals. In Sortilin −/− hippocampal slices incubated with control vehicle the LTD was still impaired. C, a similar experiment showing rescue of NMDA receptor-dependent LTD in sortilin −/− hippocampal CA1 synapses by 40 ng/ml purified soluble Sortilin. D, a similar experiment showing lack of LTD in SorCS1 −/− hippocampal CA1 synapses. […]
SorCS2 −/− mice were backcrossed onto a C57BL/6 background for more than ten generations and wild type C57BL/6 mice were used as control. […] After a recovery period of at least two h, the slices were moved to an interface chamber exposed to a humidified atmosphere of 95% O2 and 5% CO2 and we recorded field Exitatory Post-Synaptic Potentials (f-EPSP) using an Axoclamp-2B amplifier (Axon Instruments) with an artificial cerebral spinal fluid (ACSF; in mM: 126 NaCl, 2.5 KCl, 1.25 NaH2PO4, 2.5 CaCl2, 1.3 MgCl2, 10 D-glucose)-filled glass microelectrode (10-15 MΩ) positioned in the stratum radiatum of hippocampal area CA1. […]

[3] = tested on: patient suffering from a mental and behavioural disorder; assay: Passive delivery device implanted into the brain of a patient with a mental and behavioural disorder (Examples 18, 19); format: in vivo, human; conditions: device for passive delivery surgically implanted into the brain
Description: (§1) The soluble domain of human Sortilin is expressed recombinantly at a large scale in a mammalian cell culture and is subsequently purified by for example immunoaffinity chromatography. A device for passive delivery containing purified soluble Sortilin is surgically implanted into the brain of a patient suffering from a mental and behavioural disorder. Good effect is obtained and the patient is set on lifelong treatment.
as §1, with “chromatography. Similarly, proBDNF is expressed and purified at a large scale. Soluble Sortilin and proBDNF is incubated together to form a preformed Sortilin:proBDNF complex.” for “chromatography.”, “preformed Sortilin:proBDNF” for “soluble Sortilin”

Br.COc1ccc(-c2ccc(=N)n(CCCC(=O)O)n2)cc1 [SR95531, reference compound]
spontaneous inhibitory postsynaptic currents (sIPSCs) ([1]; 100 μM, blocked glutamatergic excitation): blocked

soluble Sortilin: purified soluble Sortilin, the luminal (Vps10p-domain) part of the receptor
NMDA receptor-dependent LTD [2]: rescued | NMDA receptor-dependent LTD ([2]; listed as recombinant soluble Sortilin): rescued | effect of treatment in the patient [3]: Good effect

B1: mature BDNF: mature brain-derived neurotrophic factor (protein)
chain: HSDPARRGELSVCDSISEWVTAADKKTAVDMSGGTVTVLEKVPVSKGQLKQYFYETKCNPMGYTKEGCRGIDKRHWNSQCRTTQSYVRALTMDSKKRIGWRFIRIDTSCVCTLTIKRGR
frequency of spontaneous inhibitory postsynaptic currents (sIPSCs) ([1]; Sortilin KO mouse brain slices, 20 ng/ml, n=3 cells): 2.66±1.4 Hz | GABAergic activity (in words) ([1]; 20 ng/ml): restored | GABAergic activity (in words) ([1]; 20 ng/ml, listed as exogenous BDNF): normalizes; also recorded: reversed
